Patent US8846914B2, “Compositions to effect neuronal growth” (Neuralstem, Inc., priority 2003, dated 2014)
Like-named read-outs stand apart in the source and are kept apart here.

What was measured:
[1] = tested on: Differentiating hippocampal human stem cells; experiment: Long-term treatment in vitro neurogenesis; format: cell-based; details: for activity at 10 µM: Homo sapiens, 504 h, three weeks, 5× with 10 μM, compared to the control; for Further increase in neuron numbers over long-term treatment: FIG. 11, compared to one week of treatment
Description: FIG. 11 is a bar graph illustrating an example of in vitro neurogenesis profile of the compounds for a long-term treatment. Differentiating hippocampal human stem cells mere treated with vehicle alone or with the test compounds for three weeks. Increase in cell number was determined compared to the control. Shown are several examples that are effective in continued neurogenesis. Bars represent mean+/−SD from six wells.
In another in vitro assay, compounds of the fused imidazole, iminopyrimidine, nicotinamide, aminomethyl phenoxypiperidine and aryloxypiperidine types are evaluated for their effect on the differentiation of the culture-born cells to mature neurons. More particularly, multipotent human hippocampal stem cells are treated in three doses over a one-week period in N2b media and in the presence of an agent of the type mentioned above. The cells are then fed twice weekly for approximately two more weeks in N2b or Neuralbasal+B27 Media (Gibco) and then cells are fixed using 4% paraformaldehyde. Cells are washed 3× with PBS (pH 7.4) and then stained using a nuclear stain (Hoechst or DAPI) and a mature neuronal marker, MAP-2ab (AP-20) antibody. A secondary antibody, Alexa Fluor 488 labeled goat anti-mouse IgG, is used to identify by fluorescent labeling the mature neurons. The fluorescent intensity and number of cells labeled in a multi-plate format can be measured using for instance a Array Scan II (Cellomics) or similar instrumentation.
Effects of the long-term NSI compound treatment on human hippocampal stem cells in the absence of mitogen is illustrated in FIG. 11. In FIG. 11, differentiating hippocampal human stem cells are treated with vehicle alone or with the test compounds for three weeks. Increase in cell number was determined compared to the control. Bars represent mean+/−SD from six wells. […] Several examples of NSI compounds are shown to be effective in continued neurogenesis. […] These agents comprise a class of compounds, aminopyrimidines, that, as shown previously, inhibited apoptosis. Accordingly, the aminopyrimidine class of compounds appear ideally suited for neurodegenerative long-term diseases including Alzheimer's disease and aging. Neurogenic agents that are neuroprotective like the sixteen compounds identified above might also be effective therapeutics for other neurodegenerative diseases in mammals including, but not limited to, stroke, traumatic brain injury, Parkinson's disease, and mild cognitive impairment.

[2] = tested on: human hippocampal stem cells; experiment: Cell proliferation, Alamar Blue staining of live cells; format: cell-based; details: seven days of compound treatment; relative to vehicle control
Description: FIG. 1 is a bar graph illustrating an example of a proliferation profile of compounds selected from primary screening. Proliferation is measured after compound treatment for seven days by Alamar Blue staining of live cells per well. Shown are relative values over the vehicle control.
Neural stem cells and progenitor cells differentiate spontaneously in the absence of a mitogen; therefore, undifferentiated mitotic cells are harvested by enzyme treatment to remove residual mitogen, such as basic fibroblast growth factor (bFGF) used in expansion and proliferation of the cells. In one embodiment of the present invention, undifferentiated human hippocampal stem cells (e.g., HH580)/progenitor cells are harvested by enzyme treatment.
The collected cells are seeded for attachment of the cells such as standard 96-well or 384-well plates, pre-coated with extracellular matrix proteins, such as poly-D-lysine and fibronectin (e.g., Biocoat PDL, Fisher). The initial seeding density can be within the range of about 2,000-125,000 cells per well of a 96-well plate. The preferred density, however, is 40,000 cells per well of a 96-well plate which has been optimized for best signal-to-noise ratio as described in pending U.S. patent application Ser. No. 10/728,652. Cell density that is too low retards the initiation of differentiation and results in poor plating efficiency which interferes with the assay. Cell density that is too high leads to inhibition of neurogenesis due to cell-to-cell interaction and paracrine factors which also interfere with the assay. […] For example, for a 384-well plate which has approximately one-fourth of the surface area of a 96-well plate, the initial seeding density should be decreased by one-fourth accordingly.
The cells are passaged and grown for seven days in 15 cm plates in full growth medium according to Neuralstem protocol with 50% of the media changed every other day. Following centrifugation, the call pellet is re-suspended in N2b medium and enough N2b medium is added to the cell suspension to achieve a concentration of […]. The N2b seeding media includes a standard serum-free, growth factor-free, basal media without phenol red that supports healthy neuronal/glial survival. Fibronectin and PBS is completely removed by aspiration from wells of fibronectin-coated 96-well plate(s). 100 μl of N2b medium with or without 2× concentration of screening agents or compounds to be tested are added to each well. Subsequently, 100 μl of the cell suspension is added to each well at a density of 40,000 cells per well. The cell suspension is incubated for two days at 37° C. in the presence of 5% CO2.
On Days 2, 4, and 6 of post-plating, incremental additions of the compounds are made to each well at appropriate concentrations. Therefore, after two days, 100 μl of N2b medium is removed from the wells, and 100 μl of the N2b medium is added. Likewise, on days four and six, 100 μl of N2b medium is removed from the wells and 100 μl of the N2b medium is added, and the cell suspension is again incubated at 37° C. in the presence of 5% CO2.
On day seven, the final day of the culture, a fluorescent dye such as Alamar Blue dye is added to each well. Alamar Blue dye detects metabolic respiration and is a reflection of total cellular activity indicating changes in cell number of neurons. In this regard, 20 μl of Alamar Blue (Biosource International DAL 1025) is added to each well and incubated for two hours at 37° C. in the presence of 5% CO2.
As a preliminary detection of positive activities, the overall immunostaining intensity in each well is read by a fluorescence plate reader. For instance, the fluorescence of the oxidized dye in each well is read by a fluorescent plate reader such as the Molecular Devices Fluorometric Plate Reader. The reader is set on the Read Mode End Point setting at an excitation of 530 nm, an emission of 590 nm, and a cutoff 570 nm. […]

[3] = read-out: Long Term Treatment #Neur
[4] = read-out: Long Term Treatment Neur Ratio
[5] = read-out: Long Term Treatment Prolif

`CC(C)(C)OC(=O)NCCNC(=O)c1cccnc1NCC1CCCCC1` [NSI-157] gave an activity at 10 µM [1, 3] of 139 ± 43%, an activity at 10 µM [1, 4] of 107 ± 22% and an activity at 10 µM [1, 5] of 146 ± 19%. For the same compound, the “% Prolif (Alamar)” value [2] was 218 ± 140%.

Compound `CS(=O)(=O)N(CC(=O)NCc1nc2ccccn2c1NCc1ccccc1)c1ccccc1` [NSI-185] has an activity at 10 µM [1, 3] of 155 ± 30%, an activity at 10 µM [1, 4] of 105 ± 19% and an activity at 10 µM [1, 5] of 83 ± 25%. The “% Prolif (Alamar)” value [2] was 73 ± 26%.

With `COc1ccc(CCNc2ncc(C(N)=O)c(NC3CC3)n2)cc1OC` [NSI-130] the “Further increase in neuron numbers over long-term treatment” value [1] was “effective in stimulating further increases in neuron numbers”, the activity at 10 µM [1, 3] was 128 ± 30% and the activity at 10 µM [1, 4] was 92 ± 12%. For the same compound, the activity at 10 µM [1, 5] was 115 ± 11% and the “% Prolif (Alamar)” value [2] was 92 ± 33%.

`O=C(c1cccnc1N1CCNCC1)N1CCN(Cc2ccncc2)CC1` [NSI-142] showed an activity at 10 µM [1, 3] of 146 ± 34%, an activity at 10 µM [1, 4] of 120 ± 21% and an activity at 10 µM [1, 5] of 105 ± 26%. The “% Prolif (Alamar)” value [2] was 115 ± 13%.

`CS(=O)(=O)N1CCCCC1C(=O)NCc1ccc(Nc2c(C3CC3)nc3ccccn23)cc1` (stereo not drawn) [NSI-127] showed an activity at 10 µM [1, 3] of 135 ± 21%, an activity at 10 µM [1, 4] of 131 ± 15% and an activity at 10 µM [1, 5] of 103 ± 8%. The “% Prolif (Alamar)” value [2] was 181 ± 14%.

In the case of `O=C(COc1ccccc1)NCc1nc2ccccn2c1NCC1CCCO1` (stereo not drawn) [NSI-183], the activity at 10 µM [1, 3] is reported as 148 ± 30%, the activity at 10 µM [1, 4] is reported as 111 ± 16% and the activity at 10 µM [1, 5] is reported as 99 ± 19%. For the same compound, the “% Prolif (Alamar)” value [2] was 69 ± 18%.

In the case of `O=C(NC1CCN(Cc2ccccc2)CC1)c1cccnc1N1CCNCC1` [NSI-143], the activity at 10 µM [1, 3] is reported as 102 ± 14%, the activity at 10 µM [1, 4] is reported as 103 ± 12% and the activity at 10 µM [1, 5] is reported as 153 ± 33%. The “% Prolif (Alamar)” value [2] was 97 ± 16%.

`C=CCNC(=O)c1cccnc1NCc1ccccc1OC` [NSI-150] was tested, and the activity at 10 µM [1, 3] was 120 ± 10%, the activity at 10 µM [1, 4] was 105 ± 7% and the activity at 10 µM [1, 5] was 110 ± 25%. The “% Prolif (Alamar)” value [2] was 177 ± 44%.

`NC(=O)c1cnc(NCc2ccc(Cl)cc2)nc1NCC1CCCCC1` [NSI-144] was tested, and the “Further increase in neuron numbers over long-term treatment” value [1] was “effective in stimulating further increases in neuron numbers”, the activity at 10 µM [1, 3] was 170 ± 46% and the activity at 10 µM [1, 4] was 123 ± 12%. The activity at 10 µM [1, 5] was 97 ± 21% and the “% Prolif (Alamar)” value [2] was 149 ± 15%.

Work on `NC(=O)C1CCCN1C(=O)c1cccnc1NCC1CCCCC1` (stereo not drawn) [NSI-158] yielded an activity at 10 µM [1, 3] of 141 ± 24%, an activity at 10 µM [1, 4] of 114 ± 14% and an activity at 10 µM [1, 5] of 99 ± 6%. For the same compound, the “% Prolif (Alamar)” value [2] was 236 ± 79%.

`CCCNc1ncc(C(N)=O)c(NC2CCCC2)n1` [NSI-137] was tested, and the activity at 10 µM [1, 3] was 139 ± 35%, the activity at 10 µM [1, 4] was 98 ± 18% and the activity at 10 µM [1, 5] was 111 ± 10%. For the same compound, the “% Prolif (Alamar)” value [2] was 108 ± 28%.

Compound `CC(C)CCNc1ncccc1C(=O)N1CCN(Cc2ccccc2)CC1` [NSI-189] has an activity at 10 µM [1, 3] of 110 ± 26%, an activity at 10 µM [1, 4] of 96 ± 19% and an activity at 10 µM [1, 5] of 144 ± 17%. For the same compound, the “% Prolif (Alamar)” value [2] was 70 ± 21%.

`O=C(NCc1nc2ccccn2c1NCC1CCCO1)Oc1ccccc1` (stereo not drawn) [NSI-182] showed an activity at 10 µM [1, 3] of 121 ± 13%, an activity at 10 µM [1, 4] of 111 ± 13% and an activity at 10 µM [1, 5] of 95 ± 6%. The “% Prolif (Alamar)” value [2] was 74 ± 8%.

`CCCCNc1c(C2CCN(C(=O)c3ccc(C#N)cc3)CC2)nc2ccccn12` [NSI-149] was tested, and the activity at 10 µM [1, 3] was 171 ± 19%, the activity at 10 µM [1, 4] was 143 ± 11% and the activity at 10 µM [1, 5] was 89 ± 13%. The “% Prolif (Alamar)” value [2] was 216 ± 28%.

With `CCCCNc1c(C2CCN(C(=O)CN(CC(C)C)S(C)(=O)=O)CC2)nc2cnccn12` [NSI-106] the activity at 10 µM [1, 3] was 137 ± 8%, the activity at 10 µM [1, 4] was 120 ± 5% and the activity at 10 µM [1, 5] was 92 ± 3%. For the same compound, the “% Prolif (Alamar)” value [2] was 211 ± 48%.

`CCN(CCNC(=O)c1cccnc1NCCC(C)C)Cc1cccnc1` [NSI-190] showed an activity at 10 µM [1, 3] of 121 ± 19%, an activity at 10 µM [1, 4] of 100 ± 12% and an activity at 10 µM [1, 5] of 98 ± 11%. The “% Prolif (Alamar)” value [2] was 76 ± 14%.
